Test results published in patent publication US20250213550A1, “COMPOUNDS AND METHODS FOR TREATING INFLAMMATORY BOWEL DISEASE” (Gilead Sciences, Inc., priority 2023, published 2025).
Like-named read-outs stand apart in the source and are kept apart here.

Assays:
Format in all cases: in vivo, human
[1] = Drug-drug interaction: Compound 1 on PK of combined oral contraceptive DRSP/EE; conditions: co-administration of Compound 1 (600 mg) with DRSP/EE, relative to DRSP/EE alone
Description: (§1) A Phase 1, open-label, single-center, multiple-cohort study was conducted to evaluate the effect of a mixed OATP/P-gp inhibitor (cyclosporine A; CsA) or food on the PK of Compound 1, the effect of Compound 1 on the PK of midazolam (MDZ), the effect of Compound 1 on the PK of OATP/CYP3A/BCRP substrates using atorvastatin (ATV), pravastatin (PRA), and rosuvastatin (ROS), and the effect of Compound 1 on the PK of a representative combined oral contraceptive (drospirenone/ethinyl estradiol; DRSP/EE), in healthy participants. 70 participants ages 18 to 55 years (inclusive) and having BMI of ≥18.0 kg/m^2 and ≤30.0 kg/m^2 were enrolled. For Cohorts 1-3, there were an approximately even distribution of healthy participants assigned male at birth and nonpregnant, nonlactating participants assigned female at birth. Cohort 4 included only healthy, nonpregnant, nonlactating participants assigned female at birth.
Participants in Cohort 4 received treatment sequence OPQR.
Treatment O: Single dose of DRSP 3 mg and EE 0.02 mg, administered under fasting condition on Day 1 of Period 1 […]
(§2) Concentrations of Compound 1 and its active metabolites Compound A and Compound B, MDZ and its metabolite 1-OH-MDZ, ATV and its metabolite 2-OH-ATV, PRA, ROS, DRSP, and EE in plasma PK samples were determined by validated high performance liquid chromatography tandem mass spectrometry (LC-MS/MS) bioanalytical methods.

[2] = Food effect on Compound A plasma PK after single dose Compound 1 600 mg; conditions: for Tmax: 600 mg, read-out: median Tmax
Description: as §1
Participants in Cohort 1 were randomized to 1 of 2 treatment sequences (ABC or BAC), in a 1:1 ratio.
Treatment A: Single dose of Compound 1 600 mg, administered in the AM, under fasted conditions
Treatment B: Single dose of Compound 1 600 mg, administered in the AM, within 5 minutes of completing a high-fat/high-calorie meal
• Periods 1, 2, and 3: Day 1, 0 (pre-dose, ≤5 min before dose), 0.25, 0.5, 1, 1.5, 2, 3, 4, 6, 8, 12, 18, 24, 36, 48, 72, and 96 hours post-dose; and at the early termination (ET) visit, as applicable
as §2
Pharmacokinetic parameters were determined for Compound 1 and its metabolites for all cohorts, MDZ and 1-OH-MDZ for Cohort 2; ATV, 2-OH-ATV, PRA, and ROS for Cohort 3; and DRSP and EE for Cohort 4.

OATP/P-gp = experiment: Drug-drug interaction: mixed OATP/P-gp inhibitor CsA on PK of Compound A; conditions: co-administration of Compound 1 600 mg with CsA 600 mg, fasted
Description: as §1
Treatment C: Single dose of Compound 1 600 mg, administered in the AM, under fasted conditions with a single dose of CsA 600 mg […]
as §2

[3] = Compound 1 600 mg single dose, vs fasting

Row | change in Cmax by high-fat/high-calorie meal [2, 3] | increase of AUCinf by high-fat/high-calorie meal [2, 3] [%] | Tmax ([2]; both sexes, human, plasma, oral, Compound 1 600 mg single dose, fasting) [h] | Tmax ([2]; both sexes, human, plasma, oral, Compound 1 600 mg single dose, with a high-fat/high-calorie meal) [h] | AUC(0-inf) ([2]; both sexes, human, plasma, oral, Cpd 1 600 mg single dose, fasting, Treatment A, mean) [ng·h/mL] | AUCinf % GLSM Ratio ([2]; non-fasting (test) vs fasting (reference), Cpd 1 600 mg) [%] | increase of Compound A AUCinf (OATP/P-gp) [%] | increase of Compound A Cmax (OATP/P-gp) [%] | SMILES | change in AUCinf of DRSP [1] | change in Cmax of EE [1]
1 | – | – | – | – | – | – | – | – | Cn1ccc2c([C@@H](c3cn(C45CC(C4)C5)nn3)N(C(=O)OCOP(=O)(O)O)c3cc(Cl)c4ncc(C#N)c(NCC(C)(C)C)c4c3)cccc2c1=O [Compound 1] | no change | no change
2 | no change | 92 | 4 | 5 | 46300 | 192 | 122 | 27 | Cn1ccc2c([C@H](Nc3cc(Cl)c4ncc(C#N)c(NCC(C)(C)C)c4c3)c3cn(C45CC(C4)C5)nn3)cccc2c1=O [Compound A] | – | –
